The values that follow are results of earlier work, collected in patent US20160270390A1, “POLYMERIC FILM FOR AG[…] STORAGE, […] THEREFROM AND RELATED METHODS OF AG[…] STORAGE” (priority 2012, published 2016).

The test system of this data set is insect pests. Conditions: Zimbabwe, grain damage of 92% reported due to insect pests.

Turning to `CCOC(=O)CC(SP(=S)(OC)OC)C(=O)OCC` (stereo not shown) [malthion], the “reduction of grain damage in stored maize” value is 10%.
